Experiments:
human A53T α-synuclein = test: α-Synuclein degradation in inducible PC12 cell lines (western blot), A53T; type: cell-based, rat; settings: 10 mM 3MA, 200 nM bafilomycin A1; 48 hours
Source text: Human α-synuclein with a HA tag at the N-terminus and a 6His tag at the C-terminus was amplified from pHM6α-synuclein constructs (Furlong, R. A. et a; 1 (2000) Biochem. J. 346, 577581) and inserted into pTRE2 hyg vector (Clontech) using Nhe I/Sal I sites. Constructs were confirmed by sequencing before use. The pTRE2 hygα-synuclein construct and pTettTS (Clontech) were cotransfected into PC12 TetOn cells (Clontech), using Lipofectamine (Invitrogen) and Plus Reagent (Invitrogen). Single colonies were isolated using cloning cylinders (Sigma) and cells were grown and tested for α-synuclein expression upon induction. Cell lines were subjected to a further round of purification from single colonies to ensure that lines were pure. […]
(§1) Each lane was loaded with protein from a similar number of cells, based on cell counting at the time of seeding. Proteins were transferred onto Hybond ECL nitrocellulose membrane (Amersham). α-Synuclein was detected with an antiHA monoclonal antibody (Covance) at 1:1000 dilution with 4-18 hours incubation. HRP conjugated antimouse antibody (Amersham) at 1:2000 dilution was then added to blots and antibody was detected using ECL blotting reagents (Amersham) and Hyperfilm ECL (Amersham). […]

[1] = test system: human wild-type α-synuclein; test: α-Synuclein degradation in inducible PC12 cell lines (western blot), wildtype; type: cell-based, rat; settings: 10 mM 3MA, 200 nM bafilomycin A1; for α-synuclein levels, mitotic wildtype lines: 48 hours; for fold increase in α-synuclein levels (densitometry as a function of tubulin) vs control cells, wildtype: +/− SE, did not reach significance
Source text: (§2) Human α-synuclein with a HA tag at the N-terminus and a 6His tag at the C-terminus was amplified from pHM6α-synuclein constructs (Furlong, R. A. et a; 1 (2000) Biochem. J. 346, 577581) and inserted into pTRE2 hyg vector (Clontech) using Nhe I/Sal I sites. Constructs were confirmed by sequencing before use. The pTRE2 hygα-synuclein construct and pTettTS (Clontech) were cotransfected into PC12 TetOn cells (Clontech), using Lipofectamine (Invitrogen) and Plus Reagent (Invitrogen). Single colonies were isolated using cloning cylinders (Sigma) and cells were grown and tested for α-synuclein expression upon induction. Cell lines were subjected to a further round of purification from single colonies to ensure that lines were pure.
(§3) PC12 cells were grown in Dulbecco's modified eagle's medium (DMEM, Sigma) supplemented with 10% horse serum (Sigma), 5% fetal bovine serum (Sigma), 100 U/ml penicillin/streptomycin, 2 mM L-glutamine, […] G418 (Invitrogen) and […] hygromycin B (Calbiochem) at 37° C., 10% CO2. To induce differentiation, cells were grown in media containing 1% horse serum and 100 ng/ml nerve growth factor (2.5S, Upstate Biotechnology) and incubated for about 5 days. Cells were induced to express synuclein with […] doxycycline (Sigma).
(§4) Cells were induced for 24 hours and then washed twice with media to remove doxycycline. Then cells were incubated in […] media containing either 10 mM 3-methyladenine (3MA, Sigma), 200 nM bafilomycin A1 (Sigma), […] rapamycin (Sigma), […] lactacystin (Sigma), […] epoxomicin (Affinity Research Products Ltd) or carrier controls (water or DMSO (Sigma)). 3MA and lactacystin were made up in water and rapamycin, epoxomicin and bafilomycin were dissolved in DMSO.
(§5) After 24 hours the media was replaced with fresh media plus drug and after a further 24 hours cell pellets were collected and stored at −80° C. until required.
(§6) Cell pellets were collected and stored at −80° C. until needed. Cells were lysed on ice in lysis buffer: 1% TritonX100, 20 mM TRIS pH7.5, 137 mM NaCl, 1 mM EGTA, 10% glycerol, 1.5 mM MgCl2 and protease inhibitor cocktail (Complete, Roche). […]
as §1

human A30P α-synuclein = test: α-Synuclein degradation in inducible PC12 cell lines (western blot), A30P; type: cell-based, rat; settings: 10 mM 3MA, 200 nM bafilomycin A1; for α-synuclein levels, mitotic A30P lines: 48 hours; for fold increase in α-synuclein levels (densitometry as a function of tubulin) vs control cells, A30P: +/− SE, significant
Source text: as §2, §3, §4, §5, §6, §1

[2] = test system: human wild-type, A30P and A53T α-synuclein; test: α-Synuclein degradation in inducible PC12 cell lines (western blot), all forms; type: cell-based; settings: for α-synuclein levels: induced 24 hours, doxycycline removed, drug 48 hours, cycling and differentiated cells, 0.2 mg/ml rapamycin, 10 mM lactacystin, 10 mM epoxomicin [sic]
Source text: as §2, §3, §4, §5
Cell pellets were collected and stored at −80° C. until needed. Cells were lysed on ice in lysis buffer: 1% TritonX100, 20 mM TRIS pH7.5, 137 mM NaCl, 1 mM EGTA, 10% glycerol, 1.5 mM MgCl2 and protease inhibitor cocktail (Complete, Roche).
Samples were then mixed with loading buffer: 62.5 mM TRIS pH 6.8, 2% SDS, 10% glycerol, 0.05% bromophenol blue, 100 mM dithiothreitol and 700 mM β-mercaptoethanol and boiled before loading onto 14% denaturing polyacrylamide gels.
Each lane was loaded with protein from a similar number of cells, based on cell counting at the time of seeding. Proteins were transferred onto Hybond ECL nitrocellulose membrane (Amersham). α-Synuclein was detected with an antiHA monoclonal antibody (Covance) at 1:1000 dilution with 4-18 hours incubation. HRP conjugated antimouse antibody (Amersham) at 1:2000 dilution was then added to blots and antibody was detected using ECL blotting reagents (Amersham) and Hyperfilm ECL (Amersham). Blots were stripped and then reprobed for α-tubulin (Sigma) at 1:1000 dilution.
PC12 cell lines as described above (i.e. mitotic and neuronally differentiated wild-type, A53T and A30P PC12 lines) were induced for 24 hours, then doxycycline was removed and the drugs were added for 48 hours. The trends we observed were similar in cells treated with drugs for 24 and 72 hours.

[3] = test system: LC3-stained vesicles (autophagosomes); test: Number of LC3-stained vesicles (autophagic activity); type: cell-based; settings: rapamycin treatment
Source text: Immunocytochemistry was done in COS-7 cells fixed with 4% paraformaldehyde (Sigma). Free-floating mouse brain sections from HD transgenic and control brains and paraffin-embedded HD grade III and control brain slices spanning the caudate and putamen regions were used for histochemical analysis. Primary antibodies used: anti-mTOR, anti-phospho-mTOR (Ser2448), anti-4E-BP1, anti-phospho-S6 (Ser235/236) (Cell signalling technologies), anti-LC3 (kind gift from Dr Yoshimori) and anti-huntingtin and anti-ubiquitin (both from Chemicon). Immunohistochemistry was performed by standard fluorescence methods or peroxidase labelling using Vectastain Avidin: Biotinylated enzyme Complex (ABC) kit. Relevant negative controls without the primary antibodies were performed alongside all the experiments.
LC3-II is a form of microtubule associated protein-1 light chain-3 (MAP-LC3), which is associated with mammalian autophagosomes (Kabeya, Y. et al. Embo J 19, 5720-5728 (2000)). […] While this effect was subtle, it was consistent and reproducible in four independent experiments. In addition, LC3-II increased upon induction of mutant huntingtin fragment expression in the stable PC12 cells, while no difference was seen upon induction of the Q23 cells. Another way one can score autophagic activity is to assess the number of LC3-stained vesicles.

[4] = test system: mTOR-dependent TOP-translation; test: Luciferase reporter assay with non-typical TOP sequence in COS-7 cells co-transfected with Q23 or Q74; type: cell-based, African green monkey
Description: PC12 cells stably expressing Q23 or Q74 were transfected with a luciferase construct having a 5′ untranslated region from the eEF2 gene containing a terminal oligopyrimidine tract (TOP-luciferase) or without the TOP sequence (Control-luciferase) along with β-galactosidase (to control transfection efficiency). Transfected cells were maintained in serum free medium with doxycycline for 36 hours following which the cells were stimulated with 15% serum with or without rapamycin for 3 h. Cells were then lysed and luciferase assays were performed according to standard protocol. COS-7 cells were co-transfected with Q23 or Q74 with control- or TOP-luciferase along with β-gal and experiments were performed as above. […] Experiments were performed in sextuplicate and repeated several times.
The data in FIG. 11C is represented as explained above for FIG. 10C.

| Compound | α-synuclein levels in the A53T lines (human A53T α-synuclein) | α-synuclein levels, mitotic wildtype lines [1] | fold increase in α-synuclein levels (densitometry as a function of tubulin) vs control cells, wildtype [1] | α-synuclein levels, mitotic A30P lines (human A30P α-synuclein) | fold increase in α-synuclein levels (densitometry as a function of tubulin) vs control cells, A30P (human A30P α-synuclein) | α-synuclein levels [2] | cell death or overt aggregate formation ([2]; proteasome inhibitors for 48 hours) | number of LC3-stained vesicles [3] | rapamycin-dependent reduction in luciferase activity (non-typical TOP sequence) ([4]; COS-7 cells transfected with Q23) | rapamycin-dependent reduction in luciferase activity (non-typical TOP sequence) ([4]; COS-7 cells transfected with Q74) |
| --- | --- | --- | --- | --- | --- | --- | --- | --- | --- | --- |
| Cn1cnc(N)c2ncnc1-2 [3-MA, 3-methyl adenine] | obvious increase | slight changes, at best | 1.48 fold | slight changes, at best | 1.13 fold |  |  |  |  |  |
| CO/C1=C\C(C)=C\[C@@H](C)[C@@H](O)[C@@H](C)C/C(C)=C/C=C/[C@H](OC)[C@@H]([C@@H](C)[C@@H](O)[C@H](C)[C@@]2(O)C[C@@H](O)[C@H](C)[C@@H](C(C)C)O2)OC1=O [BafA1, Bafilomycin A1] | obvious increase | slight changes, at best | 1.12 fold | slight changes, at best | 1.19 fold |  |  |  |  |  |
| CC[C@H](C)[C@H](NC(=O)[C@H]([C@@H](C)CC)N(C)C(C)=O)C(=O)N[C@H](C(=O)N[C@@H](CC(C)C)C(=O)[C@@]1(C)CO1)[C@@H](C)O [epoxomicin] |  |  |  |  |  | increase | did not cause increased cell death or overt aggregate formation |  |  |  |
| rapamycin |  |  |  |  |  | significantly reduce |  | marked increase | 23% | no such effect |

— patent US20070155771A1, “Methods and means for treating protein conformational disorders” (priority 2003, published 2007)
